Source: US12083119B2, “Methods and compositions for treating viral or virally-induced conditions” (VIRACTA SUBSIDIARY, INC., priority 2010, dated 2024)

Legend:
HIV-1 = settings: OD, converted to pg of protein
Procedure: Virus production (p24 release) was examined in an HIV-1-infected monocyte line. Cells were treated or not treated with HDAC-inhibitors and other compounds. P24 release expressed as optical density (“OD”) (FIG. 13), and then converted to pg of protein (FIG. 14). […] DMSO was vehicle for some of the compounds tested.

EBV TK = assay: Thymidine kinase expression assay (RT and real-time PCR of TK mRNA); format: cell-based, Epstein-Barr virus; design: TK expression: dose or concentration left out as unconfirmed
Procedure: To measure the relative level of TK mRNA in various total RNA preparations, reverse transcription and quantitative PCR using real time PCR technology was used. Five micrograms of total RNA was reverse-transcribed using random hexamer primers and Superscript III cDNA synthesis kit (Invitrogen). The cDNA was diluted to a final volume of 60 μl with sterile water, 8 μl of which was then used in each real time PCR reaction in an ABI 7500 Sequencher using SYBR-Green technology. Primers used for the amplification of TK were EBV-TK1-F: 5′-[…]-3′ (SEQ ID NO: 1); EBV-TK1-R: 5′-[…]-3′ (SEQ ID NO: 2). The β-actin mRNA levels in those samples were determined similarly using β-actin-specific primers Actin/hu-F: 5′-[…]-3′ (SEQ ID NO: 3); Actin/hu-R: 5′-[…]-3′ (SEQ ID NO: 4). The relative level of TK expression in a sample was calculated following normalization of β-actin expression level.
(§1) The induction of lytic phase was assayed in EBV-positive lymphoma cell lines exposed to different HDAC inhibitors (HDACi) for 24-48 hrs, then the expression of EBV TK and other EBV transcripts by RT-PCR analysis was quantified. To determine tumor cytotoxic activity of the combination of HDACi and GCV, EBV+ lymphoma cells were exposed to a range of concentrations of HDAC inhibitors and ganciclovir (GCV) for 3 days and then to GCV alone for another 3 days. Efficacy of a particular HDAC inhibitor in the combination treatment approach was then determined by enumerating living cells. A general experimental protocol is described below.
P3HR1 cells were seeded in 60 mm plates containing 3×10^6 cells in 3 ml of fresh growth media. Appropriate concentrations of HDAC inhibitors were added to the plate and cells were incubated in the presence of HDAC inhibitors for 6 h, 24 h, 48 h, or as needed. Cells were harvested by centrifugation and washed once in cold PBS. Total cellular RNA was then extracted. To measure the relative level of TK mRNA in various total RNA preparations, reverse transcription and quantitative PCR using real time PCR analysis were used. See, Ghosh, S. K., Forman, L. W., Akinsheye, I., Perrine, S. P., Faller, D. V.: Short discontinuous sodium butyrate exposure efficiently sensitizes latently EBV infected cells towards nucleoside analogue-mediated growth inhibition, Blood Cells Mol. Diseases (2007), 38:57-65. The relative level of TK expression in a sample was calculated following normalization of β-actin expression level.

P3HR1 cells [1] = format: cell-based, human; settings: for effective concentration: in the presence of GCV
Procedure: as §1
(§2) The EBV-positive B lymphoma cell line P3HR1 was used in the study. The P3HR1 cell line was originally derived from Burkitt's lymphoma patient. EBV maintains a latent state of replication in this cell line. These cells were maintained in RPMI 1640 with 10% fetal bovine serum containing 100 U penicillin per ml and 100 μg streptomycin per ml.
To test the sensitivity of EBV-positive lymphoma cells towards HDAC inhibitors, P3HR1 cells were treated with HDAC inhibitors in the presence of one anti-viral drug. At the end of the assay, the efficacy of the HDAC inhibitors was assessed by measuring the inhibition of cell growth compared to untreated cells.
(§3) Healthy, actively-growing P3HR1 cells were harvested and resuspended in fresh growth media. Cells were seeded in wells. Appropriate dilutions of HDAC inhibitors were added to certain wells, some of which received an anti-viral drug (such as GCV at 50 μM concentration). At 72 hrs, 800 μl of culture fluid was removed from each well. Wells were then refed with 1.0 ml fresh growth media without HDAC inhibitors. Fresh GCV solution was added to the wells that originally received GCV at the same initial concentration. On day 6, cell morphology was observed under microscope and viable cell counts in each individual wells were determined by trypan blue dye exclusion method using an automated cell counter (Countess, Invitrogen).

P3HR1 cells [2] = format: cell-based, human; settings: then GCV for up to 6 days
P3HR1 cells [3] = assay: Titration / toxicity of HDAC inhibitors alone on P3HR1 cells; format: cell-based, human
Procedure: as §3

P3HR1 cells [4] = format: cell-based, human
Procedure: as §2, with “throughout these assays.” for “in the study.”, “Cells” for “These cells”, “ml. […] Viable cell counts were measured and toxicity was expressed as percentage of cell growth compared to untreated cells. As shown in FIG. 2A and FIG. 2B, PCV was less toxic to the cells compared to GCV.” for “ml.”

EBV-TK = assay: Induction of EBV-TK in EBV-immortalized B-cells and patient-derived tumor cells; format: cell-based, Epstein-Barr virus; settings: for expression of viral thymidine kinase and other viral protein kinases: EBV-infected lymphocytes
Text: In some embodiments, inducing agents include arginine butyrate and/or other histone deacetylase inhibitors. […] This expression of a viral gene can be used as a point for attack by anti-viral agents, allowing for treatment of latent infections.
Treatment of patients with viral-associated tumors such as EBV with inducing agents such as arginine butyrate, to induce the expression of EBV-TK/EBV-PK, and GCV, to eliminate EBV-TK/EBV-PK expressing tumor cells, is an effective, non-toxic therapy. […] Without wishing to be bound by theory, it is believed that just the presence of the EBV genome in latent form would make the tumor susceptible to this combination protocol.

Cc1[nH]c2ccccc2c1CCNCc1ccc(/C=C/C(=O)NO)cc1 [LBH589]
virus production (p24 release) (HIV-1): active
EBV-TK expression in the tumor cells (EBV TK): strongly induced
TK expression level (EBV TK; compared to optimum concentration of NaB (2.5 mM)): quite high
concentration with activity in combination with GCV comparable to NaB at 1.0 mM (P3HR1 cells [1]): 50 nM
effective concentration (P3HR1 cells [1]): 50 to 100 nM

Nc1ccccc1NC(=O)c1ccc(CNC(=O)OCc2cccnc2)cc1 [MS-275, 3-pyridinylmethyl [[4-[[(2-aminophenyl)amino]carbonyl]phenyl]methyl] carbamate]
exposure sensitizing cells to GCV-mediated effects as efficiently as 72 hr continuous treatment (P3HR1 cells [2]): 24 h
EBV-TK expression in the tumor cells (EBV TK): strongly induced
concentration strongly inducing TK expression (EBV TK): ≥ 500 nM
time post treatment at which TK expression was induced (EBV TK): 6 h
concentration with activity in combination with GCV comparable to NaB at 1.0 mM (P3HR1 cells [1]): 500 nM
effective concentration (P3HR1 cells [1]): 200 to 500 nM

CCCC(=O)[O-].[Na+] [NaB, sodium butyrate]
cell growth, HDAC inhibitor alone (P3HR1 cells [3]; NaB at concentration higher than 1.0 mM): reduces cell growth to a significant degree
reduction of growth compared to cells treated with NaB or GCV alone (P3HR1 cells [1]; NaB+GCV): up to 50%
optimal concentration (P3HR1 cells [1]; combination with GCV): 1.0 mM

Nc1nc2c(ncn2CCC(CO)CO)c(=O)[nH]1 [PCV, penciclovir]
toxicity (percentage of cell growth compared to untreated cells) (P3HR1 cells [4]): less toxic
inhibition of cell growth at higher concentrations (P3HR1 cells [4]; PCV at higher concentrations, combination with Na-butyrate): did not change significantly

O=C(/C=C/c1cccc(S(=O)(=O)Nc2ccccc2)c1)NO [PXD101]
TK expression (EBV TK): high level

CCC(Nc1ncnc2ccccc12)C(=O)O (stereo not drawn) [RB3]
virus production (p24 release) (HIV-1): levels similar to the control of vehicle alone

O=C(CCCCCCC(=O)Nc1ccccc1)NO [SAHA, suberoyl anilide hydroxamic acid]
TK expression level (EBV TK; compared with efficient concentrations of butyrate (1.0 mM)): higher level

CCC(C)(C)C(=O)O [ST20, 2,2-dimethyl butyrate]
virus production (p24 release) (HIV-1): levels similar to the control of vehicle alone

O=C(CCCCCN1C(=O)c2cccc3cccc(c23)C1=O)NO [Scriptaid]
effect with GCV in reducing cell growth (P3HR1 cells [1]; especially at 500 nM and 1 μM): strong synergistic effect

CCCC(CCC)C(=O)O [VA, valproic acid]
efficiency in inducing TK expression (EBV TK; compared with NaB): less efficient than NaB
activity in combination with GCV on cell growth / cell killing (P3HR1 cells [1]): very similar activity

CCC(=O)CCCCC[C@@H]1NC(=O)[C@H]2CCCCN2C(=O)[C@H]([C@@H](C)CC)NC(=O)[C@H](Cc2cn(OC)c3ccccc23)NC1=O [apicidin]
virus production (p24 release) (HIV-1): active
toxicity to the cells (P3HR1 cells [3]; 500 nM): very toxic
concentration quite toxic to the cells (P3HR1 cells [3]; apicidin alone): higher than 200 nM
reduction of cell growth over cells treated with apicidin alone (P3HR1 cells [1]; 100 nM and 200 nM, with GCV): 40-50%

CC(C)C(N)=O [isobutyramide]
expression of viral thymidine kinase and other viral protein kinases (EBV-TK): enhance expression

CCCCCCCC(=O)SCC/C=C/[C@@H]1CC(=O)NCc2nc(cs2)C2=N[C@@](C)(CS2)C(=O)N[C@@H](C(C)C)C(=O)O1 [largazole]
virus production (p24 release) (HIV-1): active

CCCCCCCCCCCCCC(=O)O[C@@H]1[C@@H](C)[C@@]2(O)[C@@H](C=C(CO)C[C@]3(O)C(=O)C(C)=C[C@@H]23)[C@@H]2C(C)(C)[C@]12OC(C)=O [phorbol myristate acetate]
virus production (p24 release) (HIV-1): active

CC(C=CC(=O)NO)=CC(C)C(=O)c1ccc(N(C)C)cc1 (stereo not drawn) [trichostatin A, 7-[4-(dimethylamino)phenyl]-N-hydroxy-4,6-dimethyl-7-oxohepta-2,4-dienamide]
virus production (p24 release) (HIV-1): active

Oxamflatin
activity in combination with GCV on cell growth / cell killing (P3HR1 cells [1]): synergistic activity
activity level (growth suppression) with GCV (P3HR1 cells [1]; at 200 nM, compared with 1.0 mM NaB): more than what typically seen with 1.0 mM NaB

arginine butyrate
EBV-TK activity (EBV-TK; EBV-immortalized B-cells and patient-derived tumor cells): induces EBV-TK activity
expression of viral thymidine kinase and other viral protein kinases (EBV-TK): enhance expression
virus production (p24 release) (HIV-1): active
